Experiments:
Assay in all cases: relative viability (nuclei count vs DMSO), 5 days (fraction); higher = more cells survive
[1] = compound: CN(C)C/C=C/C(=O)Nc1cc2c(Nc3ccc(F)c(Cl)c3)ncnc2cc1O[C@H]1CCOC1 [Afatinib] + COc1cccc2cc(-c3nc([C@H]4CC[C@H](C(=O)O)CC4)n4ncnc(N)c34)[nH]c12 [OSI-027] (partner 0.5 µM)
Procedure, shortened: (§1)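 Medians of duplicate plates are given as relative viability. That measure is the nuclei count in treated wells divided by the count in vehicle wells. Counts were taken on 4× images of lung cancer cell lines in 1536-well plates, 5 days after pin-tool dosing the day after seeding with one drug alone or a fixed anchor-drug dose plus five library-drug doses (not always all listed) in √10 steps.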

[2] = compound: CN(C)C/C=C/C(=O)Nc1cc2c(Nc3ccc(F)c(Cl)c3)ncnc2cc1O[C@H]1CCOC1 [Afatinib] + NC(=O)Nc1cc(-c2cccc(F)c2)sc1C(=O)N[C@H]1CCCNC1 [AZD7762] (partner 0.2 µM)
Procedure, shortened: as §1

[3] = compound: CN(C)C/C=C/C(=O)Nc1cc2c(Nc3ccc(F)c(Cl)c3)ncnc2cc1O[C@H]1CCOC1 [Afatinib] + COc1cc2c(Oc3ccc(NC(=O)C4(C(=O)Nc5ccc(F)cc5)CC4)cc3F)ccnc2cc1OCCCN1CCOCC1 [Foretinib] (partner 0.25 µM)
Procedure, shortened: as §1

[4] = compound: CN(C)C/C=C/C(=O)Nc1cc2c(Nc3ccc(F)c(Cl)c3)ncnc2cc1O[C@H]1CCOC1 [Afatinib] + Nc1nc2[nH]cc(CCc3ccc(C(=O)N[C@@H](CCC(=O)O)C(=O)O)cc3)c2c(=O)[nH]1 [Pemetrexed] (partner 0.2 µM)
Procedure, shortened: as §1

NCI-H441
relative viability ([1]; first compound 0.005 µM): 0.677
relative viability ([1]; first compound 0.01581 µM): 0.582
relative viability ([1]; first compound 0.05 µM): 0.499
relative viability ([1]; first compound 0.1581 µM): 0.481
relative viability ([1]; first compound 0.5 µM): 0.426
relative viability ([2]; first compound 0.005 µM): 1.56
relative viability ([2]; first compound 0.01581 µM): 0.993
relative viability ([2]; first compound 0.05 µM): 1.09
relative viability ([2]; first compound 0.1581 µM): 1.16
relative viability ([2]; first compound 0.5 µM): 1.1
relative viability ([3]; first compound 0.005 µM): 1.22
relative viability ([3]; first compound 0.01581 µM): 0.837
relative viability ([3]; first compound 0.05 µM): 0.987
relative viability ([3]; first compound 0.1581 µM): 0.742
relative viability ([3]; first compound 0.5 µM): 0.75
relative viability ([4]; first compound 0.005 µM): 0.255
relative viability ([4]; first compound 0.01581 µM): 0.246
relative viability ([4]; first compound 0.05 µM): 0.25
relative viability ([4]; first compound 0.1581 µM): 0.283
relative viability ([4]; first compound 0.5 µM): 0.274

NCI-H650
relative viability ([1]; first compound 0.005 µM): 0.557
relative viability ([1]; first compound 0.01581 µM): 0.475
relative viability ([1]; first compound 0.05 µM): 0.566
relative viability ([1]; first compound 0.1581 µM): 0.516
relative viability ([1]; first compound 0.5 µM): 0.503
relative viability ([2]; first compound 0.005 µM): 0.832
relative viability ([2]; first compound 0.01581 µM): 0.886
relative viability ([2]; first compound 0.05 µM): 1.03
relative viability ([2]; first compound 0.1581 µM): 1.04
relative viability ([2]; first compound 0.5 µM): 0.904
relative viability ([3]; first compound 0.005 µM): 1.13
relative viability ([3]; first compound 0.01581 µM): 0.997
relative viability ([3]; first compound 0.05 µM): 1.06
relative viability ([3]; first compound 0.1581 µM): 1.02
relative viability ([3]; first compound 0.5 µM): 0.998
relative viability ([4]; first compound 0.005 µM): 0.922
relative viability ([4]; first compound 0.01581 µM): 0.849
relative viability ([4]; first compound 0.05 µM): 0.951
relative viability ([4]; first compound 0.1581 µM): 0.854
relative viability ([4]; first compound 0.5 µM): 0.87

NCI-H1355
relative viability ([1]; first compound 0.005 µM): 0.388
relative viability ([1]; first compound 0.01581 µM): 0.341
relative viability ([1]; first compound 0.05 µM): 0.348
relative viability ([1]; first compound 0.1581 µM): 0.361
relative viability ([1]; first compound 0.5 µM): 0.276
relative viability ([2]; first compound 0.005 µM): 0.71
relative viability ([2]; first compound 0.01581 µM): 0.765
relative viability ([2]; first compound 0.05 µM): 0.779
relative viability ([2]; first compound 0.1581 µM): 0.645
relative viability ([2]; first compound 0.5 µM): 0.748
relative viability ([3]; first compound 0.005 µM): 0.947
relative viability ([3]; first compound 0.01581 µM): 0.636
relative viability ([3]; first compound 0.05 µM): 0.824
relative viability ([3]; first compound 0.1581 µM): 0.773
relative viability ([3]; first compound 0.5 µM): 0.751
relative viability ([4]; first compound 0.005 µM): 1.07
relative viability ([4]; first compound 0.01581 µM): 1.01
relative viability ([4]; first compound 0.05 µM): 0.946
relative viability ([4]; first compound 0.1581 µM): 0.906
relative viability ([4]; first compound 0.5 µM): 0.974

NCI-H2347
relative viability ([1]; first compound 0.005 µM): 0.403
relative viability ([1]; first compound 0.01581 µM): 0.46
relative viability ([1]; first compound 0.05 µM): 0.393
relative viability ([1]; first compound 0.1581 µM): 0.364
relative viability ([1]; first compound 0.5 µM): 0.373
relative viability ([2]; first compound 0.005 µM): 0.568
relative viability ([2]; first compound 0.01581 µM): 0.738
relative viability ([2]; first compound 0.05 µM): 0.589
relative viability ([2]; first compound 0.1581 µM): 0.725
relative viability ([2]; first compound 0.5 µM): 0.541
relative viability ([3]; first compound 0.005 µM): 1.08
relative viability ([3]; first compound 0.01581 µM): 0.842
relative viability ([3]; first compound 0.05 µM): 1.03
relative viability ([3]; first compound 0.1581 µM): 0.899
relative viability ([3]; first compound 0.5 µM): 0.518
relative viability ([4]; first compound 0.005 µM): 0.401
relative viability ([4]; first compound 0.01581 µM): 0.414
relative viability ([4]; first compound 0.05 µM): 0.426
relative viability ([4]; first compound 0.1581 µM): 0.45
relative viability ([4]; first compound 0.5 µM): 0.392

LCLC-97TM1
relative viability ([1]; first compound 0.005 µM): 0.561
relative viability ([1]; first compound 0.01581 µM): 0.502
relative viability ([1]; first compound 0.05 µM): 0.629
relative viability ([1]; first compound 0.1581 µM): 0.43
relative viability ([1]; first compound 0.5 µM): 0.457
relative viability ([2]; first compound 0.005 µM): 0.164
relative viability ([2]; first compound 0.01581 µM): 0.259
relative viability ([2]; first compound 0.05 µM): 0.186
relative viability ([2]; first compound 0.1581 µM): 0.42
relative viability ([2]; first compound 0.5 µM): 0.18
relative viability ([3]; first compound 0.005 µM): 1
relative viability ([3]; first compound 0.01581 µM): 0.906
relative viability ([3]; first compound 0.05 µM): 0.894
relative viability ([3]; first compound 0.1581 µM): 0.808
relative viability ([3]; first compound 0.5 µM): 0.907
relative viability ([4]; first compound 0.005 µM): 0.17
relative viability ([4]; first compound 0.01581 µM): 0.187
relative viability ([4]; first compound 0.05 µM): 0.191
relative viability ([4]; first compound 0.1581 µM): 0.21
relative viability ([4]; first compound 0.5 µM): 0.152

EMC-BAC-2
relative viability ([1]; first compound 0.005 µM): 0.371
relative viability ([1]; first compound 0.01581 µM): 0.355
relative viability ([1]; first compound 0.05 µM): 0.418
relative viability ([1]; first compound 0.1581 µM): 0.378
relative viability ([1]; first compound 0.5 µM): 0.352
relative viability ([2]; first compound 0.005 µM): 1.07
relative viability ([2]; first compound 0.01581 µM): 1.17
relative viability ([2]; first compound 0.05 µM): 1.14
relative viability ([2]; first compound 0.1581 µM): 1.06
relative viability ([2]; first compound 0.5 µM): 1.19
relative viability ([3]; first compound 0.005 µM): 1.03
relative viability ([3]; first compound 0.01581 µM): 0.952
relative viability ([3]; first compound 0.05 µM): 0.865
relative viability ([3]; first compound 0.1581 µM): 0.753
relative viability ([3]; first compound 0.5 µM): 0.928
relative viability ([4]; first compound 0.005 µM): 0.441
relative viability ([4]; first compound 0.01581 µM): 0.496
relative viability ([4]; first compound 0.05 µM): 0.462
relative viability ([4]; first compound 0.1581 µM): 0.523
relative viability ([4]; first compound 0.5 µM): 0.511

NCI-H1975
relative viability ([1]; first compound 0.005 µM): 0.81
relative viability ([1]; first compound 0.01581 µM): 0.644
relative viability ([1]; first compound 0.05 µM): 0.688
relative viability ([1]; first compound 0.1581 µM): 0.303
relative viability ([1]; first compound 0.5 µM): 0.147
relative viability ([2]; first compound 0.005 µM): 0.867
relative viability ([2]; first compound 0.01581 µM): 0.676
relative viability ([2]; first compound 0.05 µM): 0.538
relative viability ([2]; first compound 0.1581 µM): 0.43
relative viability ([2]; first compound 0.5 µM): 0.312
relative viability ([3]; first compound 0.005 µM): 0.952
relative viability ([3]; first compound 0.01581 µM): 0.907
relative viability ([3]; first compound 0.05 µM): 0.872
relative viability ([3]; first compound 0.1581 µM): 0.353
relative viability ([3]; first compound 0.5 µM): 0.303
relative viability ([4]; first compound 0.005 µM): 0.287
relative viability ([4]; first compound 0.01581 µM): 0.28
relative viability ([4]; first compound 0.05 µM): 0.295
relative viability ([4]; first compound 0.1581 µM): 0.276
relative viability ([4]; first compound 0.5 µM): 0.209

BEN
relative viability ([1]; first compound 0.005 µM): 0.326
relative viability ([1]; first compound 0.01581 µM): 0.283
relative viability ([1]; first compound 0.05 µM): 0.297
relative viability ([1]; first compound 0.1581 µM): 0.299
relative viability ([1]; first compound 0.5 µM): 0.298
relative viability ([2]; first compound 0.005 µM): 0.618
relative viability ([2]; first compound 0.01581 µM): 0.704
relative viability ([2]; first compound 0.05 µM): 0.648
relative viability ([2]; first compound 0.1581 µM): 0.642
relative viability ([2]; first compound 0.5 µM): 0.636
relative viability ([3]; first compound 0.005 µM): 0.719
relative viability ([3]; first compound 0.01581 µM): 0.63
relative viability ([3]; first compound 0.05 µM): 0.651
relative viability ([3]; first compound 0.1581 µM): 0.634
relative viability ([3]; first compound 0.5 µM): 0.775
relative viability ([4]; first compound 0.005 µM): 0.801
relative viability ([4]; first compound 0.01581 µM): 0.785
relative viability ([4]; first compound 0.05 µM): 0.753
relative viability ([4]; first compound 0.1581 µM): 0.772
relative viability ([4]; first compound 0.5 µM): 0.819
